In PubChem BioAssay (NCI):
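These data come from cells grown in 96-well plates and exposed to compound for 48 hours at five concentrations. TGI denotes the concentration required for complete inhibition of growth.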

Columns and labels:
Assay in all cases: NCI tumour cell line growth inhibition, 48 h
786-0 renal = system: 786-0 renal
A549 NSCLC = system: A549 NSCLC
ACHN renal = system: ACHN renal
CCRF-CEM leukemia = system: CCRF-CEM leukemia
COLO 205 colon = system: COLO 205 colon
DLD-1 colon = system: DLD-1 colon
DMS 114 small cell lung = system: DMS 114 small cell lung
DMS 273 small cell lung = system: DMS 273 small cell lung
EKVX NSCLC = system: EKVX NSCLC
HCC-2998 colon = system: HCC-2998 colon
HCT-15 colon = system: HCT-15 colon
HL-60(TB) leukemia = system: HL-60(TB) leukemia
HOP-18 NSCLC = system: HOP-18 NSCLC
HOP-92 NSCLC = system: HOP-92 NSCLC
HT29 colon = system: HT29 colon
IGROV1 ovarian = system: IGROV1 ovarian
K-562 leukemia = system: K-562 leukemia
KM12 colon = system: KM12 colon
LXFL 529 NSCLC = system: LXFL 529 NSCLC
M14 melanoma = system: M14 melanoma
M19-MEL melanoma = system: M19-MEL melanoma
MALME-3M melanoma = system: MALME-3M melanoma
MOLT-4 leukemia = system: MOLT-4 leukemia
NCI-H226 lung = system: NCI-H226 lung
NCI-H23 lung = system: NCI-H23 lung
NCI-H460 lung = system: NCI-H460 lung
NCI-H522 lung = system: NCI-H522 lung
OVCAR-3 ovarian = system: OVCAR-3 ovarian
OVCAR-5 ovarian = system: OVCAR-5 ovarian
OVCAR-8 ovarian = system: OVCAR-8 ovarian
RPMI-8226 leukemia = system: RPMI-8226 leukemia
RXF 393 renal = system: RXF 393 renal
SF-268 CNS = system: SF-268 CNS
SF-295 CNS = system: SF-295 CNS
SF-539 CNS = system: SF-539 CNS
SK-MEL-2 melanoma = system: SK-MEL-2 melanoma
SK-MEL-28 melanoma = system: SK-MEL-28 melanoma
SK-MEL-5 melanoma = system: SK-MEL-5 melanoma
SK-OV-3 ovarian = system: SK-OV-3 ovarian
SN12C renal = system: SN12C renal
SNB-19 CNS = system: SNB-19 CNS
SR leukemia = system: SR leukemia
SW-620 colon = system: SW-620 colon
TK-10 renal = system: TK-10 renal
U251 CNS = system: U251 CNS
UACC-257 melanoma = system: UACC-257 melanoma
UO-31 renal = system: UO-31 renal
XF 498 CNS = system: XF 498 CNS
CAKI-1 renal = system: CAKI-1 renal
HCT-116 colon = system: HCT-116 colon
HOP-62 NSCLC = system: HOP-62 NSCLC
KM20L2 colon = system: KM20L2 colon
LOX IMVI melanoma = system: LOX IMVI melanoma
OVCAR-4 ovarian = system: OVCAR-4 ovarian
SNB-75 CNS = system: SNB-75 CNS
SNB-78 CNS = system: SNB-78 CNS
UACC-62 melanoma = system: UACC-62 melanoma

Measured: TGI

CC1(O)CCC2(C)C(=O)C1(C)CCC21OCCO1 (centres undefined)
> 100 µM: 786-0 renal | A549 NSCLC | ACHN renal | CCRF-CEM leukemia | COLO 205 colon | DLD-1 colon | DMS 114 small cell lung | DMS 273 small cell lung | EKVX NSCLC | HCC-2998 colon | HCT-15 colon | HL-60(TB) leukemia | HOP-18 NSCLC | HOP-92 NSCLC | HT29 colon | IGROV1 ovarian | K-562 leukemia | KM12 colon | LXFL 529 NSCLC | M14 melanoma | M19-MEL melanoma | MALME-3M melanoma | MOLT-4 leukemia | NCI-H226 lung | NCI-H23 lung | NCI-H460 lung | NCI-H522 lung | OVCAR-3 ovarian | OVCAR-5 ovarian | OVCAR-8 ovarian | RPMI-8226 leukemia | RXF 393 renal | SF-268 CNS | SF-295 CNS | SF-539 CNS | SK-MEL-2 melanoma | SK-MEL-28 melanoma | SK-MEL-5 melanoma | SK-OV-3 ovarian | SN12C renal | SNB-19 CNS | SR leukemia | SW-620 colon | TK-10 renal | U251 CNS | UACC-257 melanoma | UO-31 renal | XF 498 CNS

CCOC(=O)c1c(-c2ccccc2)c(C(OC(c2ccccc2)c2c(-c3ccccc3)c(C(=O)OCC)n3ccccc23)c2ccccc2)c2ccccn12 (centres undefined)
> 100 µM: 786-0 renal | A549 NSCLC | ACHN renal | CAKI-1 renal | CCRF-CEM leukemia | COLO 205 colon | DLD-1 colon | DMS 273 small cell lung | EKVX NSCLC | HCC-2998 colon | HCT-116 colon | HCT-15 colon | HL-60(TB) leukemia | HOP-18 NSCLC | HOP-62 NSCLC | HT29 colon | IGROV1 ovarian | K-562 leukemia | KM12 colon | KM20L2 colon | LOX IMVI melanoma | LXFL 529 NSCLC | M14 melanoma | MALME-3M melanoma | MOLT-4 leukemia | NCI-H226 lung | NCI-H23 lung | NCI-H460 lung | NCI-H522 lung | OVCAR-3 ovarian | OVCAR-4 ovarian | OVCAR-5 ovarian | OVCAR-8 ovarian | RPMI-8226 leukemia | RXF 393 renal | SF-268 CNS | SF-295 CNS | SK-MEL-2 melanoma | SK-MEL-28 melanoma | SK-OV-3 ovarian | SN12C renal | SNB-19 CNS | SNB-75 CNS | SNB-78 CNS | SR leukemia | SW-620 colon | TK-10 renal | UACC-257 melanoma | UACC-62 melanoma | UO-31 renal | XF 498 CNS
